# Data published in patent EP3720857B1, “2-OXO-5H-CHROMENO[4,3-B]PYRIDINES FOR USE IN THE TREATMENT OF HEPATITIS B” (Galapagos NV, priority 2017, dated 2019).
# Columns and labels:
# HBV [1] = assay: Humanized mouse model of HBV infection in human-murine liver chimeric mice; assay type: in vivo, FRG KO mice; design: unit not given here; conditions: n=6
# Description: (asterisks), the group treated with illustrative compound 46 at 3 mg/kg p.o. q.d. (asterisks), the group treated with illustrative compound 46 at 30 mg/kg p.o. q.d. (filled squares), the group treated with illustrative compound 44 at 1 mg/kg p.o. q.d. (crosses), and the group treated with illustrative compound 44 at 10 mg/kg p.o. q.d. (filled circles).
# Six to ten weeks old male or female FRG KO mice (Fah-/-/Rag2-/-/Il2rg-/-triple knock-out - Yecuris Corporation P.O. Box 4645, Tualatin, OR 97062, USA) are used. They are provided with filtered tap water and standard chow ad libitum and maintained at 22 ± 2°C in 55 ± 10% humidity on a 12h light/dark cycle.
# Each mouse is repopulated by intra splenic injection of 1 to 2 10^6 human hepatocytes (Life Technologies ref HMCS2SA). To allow a progressive and efficacious repopulation, drinking water is regularly supplemented with Nitisinone (Yecuris, lot TNAK0002). The repopulation rate is controlled by hAlb dosage in serum (Euromedex ref E88-129). About 3 to 4 months after the human hepatocyte injection, mice for which repopulation is successful reach an hAlb level >1g/L and can be used for HBV infection.
# The test compounds for p.o administration are formulated in Solutol at 2% (Sigma : Kolliphor hS15 12966-1kg lot BCBM0868V) and methylcellulose 0.5% at 98%
# Each mouse is injected with HBV-2015 batch ([…]) with an inoculum of 1.38 10^8 GE HBV (0.2 mL) via tail vein.
# Six to seven weeks after infection, blood is sampled under isoflurane anesthesia by retro-orbital puncture. HBsAg is dosed in serum by Elisa assay (Immunodiagnostic, ref HBSAG EIA). HBV DNA level is measured in the mice serum using qPCR (SYBR green). Only mice reaching HBsAg level above 1000UI/mL are kept and randomized.
# Treatment is given for 5 weeks according to body weight.
# Body weight is recorded every week.
# Between Day 7 and Day 11, a steady state PK is performed with sampling of blood under isoflurane anesthesia by retro-orbital puncture at T=0, 1h, 3h, 6h post treatment. Plasma are frozen before decontamination with ethanol absolute 80% and transfer to bioanalysis laboratory for compound dosage by LCMS-MS.
# At […], D8, D15, D22 and D28, blood is sampled under isoflurane anesthesia by retro-orbital puncture. To follow compounds efficacy, HBsAg is dosed in serum by Elisa assay (Immunodiagnostic, ref HBSAG EIA) and HBV DNA level is measured in serum using qPCR (SYBR green).
# After 5 weeks of treatment, mice are euthanized 2 hours after the last dosing for liver and blood collection.
# In blood HBsAg is measured by Elisa assay, HBV DNA by qPCR and compound level by LCMS-MS.
# In liver HBV DNA is measured by qPCR, compound level by LCMS-MS, pgRNA by RT-qPCR, HBcAg by immunohistochemistry (Dako ref B0586).
# When subjected to this protocol, the following results for illustrative compounds of the invention are obtained. Table VII. Infected mice HBsAg blood level variation
# HBV [2] = assay: as above; assay type: in vivo, FRG KO mice; design: unit not given here; conditions: D1, mean, n=6
compound,measurement,setting,value
"COCCCOc1cc2c(cc1Cl)-c1c(cc(C(=O)O)c(=O)n1C1CC1)[C@H](C1(C)COC1)O2 [Compound 46, (5R)-9-chloro-1-cyclopropyl-8-(3-methoxypropoxy)-5-(3-methyloxetan-3-yl)-2-oxo-5H-chromeno[4,3-b]pyridine-3-carboxylic acid]",Infected mice HBsAg blood level,"HBV [1]; 0.3 mg/kg p.o q.d, D8, mean",3.7
same,Infected mice HBsAg blood level,"HBV [1]; 0.3 mg/kg p.o q.d, D15, mean",3.8
same,Infected mice HBsAg blood level,"HBV [1]; 0.3 mg/kg p.o q.d, D22, mean",3.9
same,Infected mice HBsAg blood level,"HBV [1]; 0.3 mg/kg p.o q.d, D28, mean",3.7
same,Infected mice HBsAg blood level,"HBV [1]; 3 mg/kg p.o q.d, D8, mean",3.4
same,Infected mice HBsAg blood level,"HBV [1]; 3 mg/kg p.o q.d, D15, mean",3.4
same,Infected mice HBsAg blood level,"HBV [1]; 3 mg/kg p.o q.d, D22, mean",3.4
same,Infected mice HBsAg blood level,"HBV [1]; 3 mg/kg p.o q.d, D28, mean",3.4
same,Infected mice HBsAg blood level,"HBV [1]; 30 mg/kg p.o q.d, D1, mean",4.4
same,Infected mice HBsAg blood level,"HBV [1]; 30 mg/kg p.o q.d, D8, mean",3.5
same,Infected mice HBsAg blood level,"HBV [1]; 30 mg/kg p.o q.d, D15, mean",3.5
same,Infected mice HBsAg blood level,"HBV [1]; 30 mg/kg p.o q.d, D22, mean",3.4
same,Infected mice HBsAg blood level,"HBV [1]; 30 mg/kg p.o q.d, D28, mean",3.5
same,Infected mice HBsAg blood level,HBV [2]; 0.3 mg/kg p.o q.d,4.4
same,Infected mice HBsAg blood level,HBV [2]; 3 mg/kg p.o q.d,4.4
"COCCCOc1cc2c(cc1F)-c1c(cc(C(=O)O)c(=O)n1C1CC1)[C@H](C(C)C)O2 [Compound 44, (5S)-1-cyclopropyl-9-fluoro-5-isopropyl-8-(3-methoxypropoxy)-2-oxo-5H-chromeno[4,3-b]pyridine-3-carboxylic acid]",Infected mice HBsAg blood level,"HBV [1]; 1 mg/kg p.o q.d, D1, mean",4.5
same,Infected mice HBsAg blood level,"HBV [1]; 1 mg/kg p.o q.d, D8, mean",3.6
same,Infected mice HBsAg blood level,"HBV [1]; 1 mg/kg p.o q.d, D15, mean",3.5
same,Infected mice HBsAg blood level,"HBV [1]; 1 mg/kg p.o q.d, D22, mean",3.5
same,Infected mice HBsAg blood level,"HBV [1]; 1 mg/kg p.o q.d, D28, mean",3.6
same,Infected mice HBsAg blood level,"HBV [1]; 10 mg/kg p.o q.d, D1, mean",4.4
same,Infected mice HBsAg blood level,"HBV [1]; 10 mg/kg p.o q.d, D8, mean",3.4
same,Infected mice HBsAg blood level,"HBV [1]; 10 mg/kg p.o q.d, D15, mean",3.5
same,Infected mice HBsAg blood level,"HBV [1]; 10 mg/kg p.o q.d, D22, mean",3.4
same,Infected mice HBsAg blood level,"HBV [1]; 10 mg/kg p.o q.d, D28, mean",3.4
